Converted amounts (≈) assume the structure as drawn.
Assays:
HBV [1] = experiment: Selectivity index (CC50 value/EC50 value); type: cell-based, Hepatitis B virus
Procedure, shortened: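 Ratio of CC50 to EC50, measuring antiviral activity against HBV relative to cytotoxicity in vitro; higher values indicate greater separation between viral inhibition and cell death.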

HBV [2] = experiment: Anti-HBV activity in vitro in HepG2.2.15 cells (extracellular HBV DNA by qPCR); type: cell-based, Hepatitis B virus; settings: Hepatitis B virus; HepG2.2.15 cells; in-house data; read-out: EC50
Procedure, shortened: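 HepG2.2.15 cells, which constitutively produce HBV, were seeded overnight and then treated for 5 days with half-log serially diluted compounds at 0.5% final DMSO. Extracellular HBV DNA in culture supernatant was extracted and quantified by qPCR.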

[3] = Lyophilisation solubility assay (Lysa); type: physicochemical; settings: phosphate buffer, pH 6.5, aqueous buffer, thermodynamic from solid
Procedure, shortened: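 Duplicate samples from 10 mM DMSO stocks are dried, redissolved in 0.05 M phosphate buffer pH 6.5, stirred 1 h, shaken 2 h and left overnight. Filtrate and its 1/10 dilution are quantified by direct UV or HPLC-UV, giving solubility in μg/mL.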

[4] = Metabolic stability study in human microsome; type: in vitro ADME
Procedure, shortened: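 Human liver microsomes (0.5 mg/mL) with 1 μM compound in 100 mM phosphate pH 7.4 at 37 °C, started with 1 mM NADPH or an NADPH-regenerating system. Samples taken at 0, 3, 6, 9, 15 and 30 min, quenched in methanol. Parent remaining measured by LC-MS/MS; no-cofactor controls included.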

[5] = Cytotoxicity (CC50) in HepDE19 cells, CCK-8 cell viability; type: cell-based; settings: human, HepDE19 cells; read-out: CC50
Procedure, shortened: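 HBV-transfected HepG2-derived HepDE19 cells grown in DMEM-F12 with 10% FBS and G418. Viability read five days after treatment by CCK-8, 2 h at 37 °C, absorbance at 450 and 630 nm.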

| Structure (SMILES) | Selectivity index (CC50/EC50) (HBV [1]) | EC50 (HBV [2]) | solubility thermodynamic [3] | Human Hepatic Clearance [4] | CC50 at 5 days [5] |
| --- | --- | --- | --- | --- | --- |
| COC(=O)C1=C(CN2CC(F)(F)C[C@H]2C(=O)O)NC(c2cc(F)cs2)=N[C@H]1c1ccc(F)cc1Cl [Example 12, (R)-6-((S)-2-Carboxy-4,4-difluoro-pyrrolidin-1-ylmethyl)-4-(2-chloro-4-fluoro-phenyl)-2-(4-fluoro-thiophen-2-yl)-1,4-dihydro-pyrimidine-5-carboxylic acid methyl ester] | >10753 | 9.3 nM | 488 µg/mL (≈ 917 µM) | 5.55 mL/min/kg | > 100000 nM |
| CCOC(=O)C1=C(CN2CCOC[C@H]2C(=O)O)NC(c2nccs2)=N[C@H]1c1ccccc1Br [Example 127, (S)-4-(((R)-6-(2-Bromophenyl)-5-(ethoxycarbonyl)-2-(thiazol-2-yl)-3,6-dihydropyrimidin-4-yl)methyl)morpholine-3 carboxylic acid] | >14925 | 6.7 nM | > 672 µg/mL | 2.44 mL/min/kg | > 100000 nM |
| CCOC(=O)C1=C(CN2CC(F)(F)C[C@H]2C(=O)O)NC(c2nccs2)=N[C@H]1c1ccc(F)cc1F [Example 59, (R)-6-((S)-2-Carboxy-4,4-difluoro-pyrrolidin-1-ylmethyl)-4-(2,4-difluoro-phenyl)-2-thiazol-2-yl-1,4-dihydro-pyrimidine-5-carboxylic acid ethyl ester] | 3935 | 13 nM | > 630 µg/mL | 3.5 mL/min/kg | 52000 nM |
| COC(=O)C1=C(CN2CCOC[C@H]2C(=O)O)NC(c2ncoc2C)=N[C@H]1c1cccc(F)c1Cl [Example 103, (S)-4-[(R)-6-(2-Chloro-3-fluoro-phenyl)-5-methoxycarbonyl-2-(5-methyl-oxazol-4-yl)-3,6-dihydro-pyrimidin-4-ylmethyl]-morpholine-3-carboxylic acid] | >6803 | 15 nM | > 643 µg/mL | 2.81 mL/min/kg | > 100000 nM |
| COC(=O)C1=C(CN2CCO[C@H](C)[C@H]2C(=O)O)NC(c2nccs2)=N[C@H]1c1cccc(F)c1Cl [Example 115, (2R,3S)-4-[(R)-6-(2-Chloro-3-fluoro-phenyl)-5-methoxycarbonyl-2-thiazol-2-yl-3,6-dihydro-pyrimidin-4-ylmethyl]-2-methyl-morpholine-3-carboxylic acid] | >43478 | 2.3 nM | > 642 µg/mL | 1.55 mL/min/kg | > 100000 nM |
| COC(=O)C1=C(CN2CC(F)(F)C[C@H]2C(=O)O)NC(c2nc(C3CC3)cs2)=N[C@H]1c1ccc(F)cc1Cl [Example 10, (R)-6-((S)-2-Carboxy-4,4-difluoro-pyrrolidin-1-ylmethyl)-4-(2-chloro-4-fluoro-phenyl)-2-(4-cyclopropyl-thiazol-2-yl)-1,4-dihydro-pyrimidine-5-carboxylic acid methyl ester] | 5342 | 7.3 nM | 246 µg/mL (≈ 443 µM) | 8.76 mL/min/kg | 39000 nM |
| COC(=O)C1=C(CN2CCO[C@H](C)[C@H]2C(=O)O)NC(c2nccs2)=N[C@H]1c1ccc(F)cc1Br [Example 106, (2R,3S)-4-[(R)-6-(2-Bromo-4-fluoro-phenyl)-5-methoxycarbonyl-2-thiazol-2-yl-3,6-dihydro-pyrimidin-4-ylmethyl]-2-methyl-morpholine-3-carboxylic acid] | >47619 | 2.1 nM | > 730 µg/mL | 6.32 mL/min/kg | > 100000 nM |
| CCOC(=O)C1=C(CN2CCOC[C@H]2C(=O)O)NC(c2nccs2)=N[C@H]1c1cc(F)c(F)c(F)c1 [Example 43, (S)-4-[(S)-5-Ethoxycarbonyl-2-thiazol-2-yl-6-(3,4,5-trifluoro-phenyl)-3,6-dihydro-pyrimidin-4-ylmethyl]-morpholine-3-carboxylic acid] | >5556 | 18 nM | > 606 µg/mL | 1.2 mL/min/kg | > 100000 nM |
| CCOC(=O)C1=C(CN2CCOC[C@H]2C(=O)O)NC(c2nccs2)=N[C@H]1c1ccc(Br)cc1 [Example 123, (3S)-4-[[(4S)-4-(4-Bromophenyl)-5-ethoxycarbonyl-2-(1,3-thiazol-2-yl)-1,4-dihydropyrimidin-6-yl]methyl]morpholine-3-carboxylic acid] | 19900 | 2.8 nM | > 666 µg/mL | 3.14 mL/min/kg | 56000 nM |
| COC(=O)C1=C(CN2CCOC[C@H]2C(=O)O)NC(c2nccs2)=N[C@H]1c1ccc(Cl)cc1F [Example 75, (S)-4-[(R)-6-(4-Chloro-2-fluoro-phenyl)-5-methoxycarbonyl-2-thiazol-2-yl-3,6-dihydro-pyrimidin-4-ylmethyl]-morpholine-3-carboxylic acid] | 5556 | 18 nM | > 632 µg/mL | 0 mL/min/kg | > 100000 nM |
| CCOC(=O)C1=C(CN2CCOC[C@H]2C(=O)O)NC(c2nccn2C)=N[C@H]1c1ccc(F)cc1Cl [Example 35, (S)-4-[(R)-6-(2-Chloro-4-fluoro-phenyl)-5-ethoxycarbonyl-2-(1-methyl-1H-imidazol-2-yl)-3,6-dihydro-pyrimidin-4-ylmethyl]-morpholine-3-carboxylic acid] | 12987 | 7.7 nM | > 599 µg/mL | 8.86 mL/min/kg | > 100000 nM |
| CCOC(=O)C1=C(CN2CCOC[C@H]2C(=O)O)NC(c2nccs2)=N[C@H]1c1cccc(F)c1F [Example 70, (S)-4-[(R)-6-(2,3-Difluoro-phenyl)-5-ethoxycarbonyl-2-thiazol-2-yl-3,6-dihydro-pyrimidin-4-ylmethyl]-morpholine-3-carboxylic acid] | >11236 | 8.9 nM | > 611 µg/mL | 2.22 mL/min/kg | > 100000 nM |
| COC(=O)C1=C(CN2CCO[C@H](C)[C@H]2C(=O)O)NC(c2nccs2)=N[C@H]1c1ccc(F)c(F)c1 [Example 113, (2R,3S)-4-[(S)-6-(3,4-Difluoro-phenyl)-5-methoxycarbonyl-2-thiazol-2-yl-3,6-dihydro-pyrimidin-4-ylmethyl]-2-methyl-morpholine-3-carboxylic acid] | >6061 | 16 nM | > 615 µg/mL | 0 mL/min/kg | > 100000 nM |
| CCOC(=O)C1=C(CN2CCOC[C@H]2C(=O)O)NC(c2nccs2)=N[C@H]1c1ccc(Br)c(F)c1 [Example 52, (S)-4-[(S)-6-(4-Bromo-3-fluoro-phenyl)-5-ethoxycarbonyl-2-thiazol-2-yl-3,6-dihydro-pyrimidin-4-ylmethyl]-morpholine-3-carboxylic acid] | 4693 | 3 nM | > 665 µg/mL | 4.03 mL/min/kg | 14000 nM |
| CCOC(=O)C1=C(CN2CCOC[C@H]2C(=O)O)NC(c2nccs2)=N[C@H]1c1ccc(Br)cc1F [Example 93, (S)-4-[(R)-6-(4-Bromo-2-fluoro-phenyl)-5-ethoxycarbonyl-2-thiazol-2-yl-3,6-dihydro-pyrimidin-4-ylmethyl]-morpholine-3-carboxylic acid] | 6977 | 4.3 nM | > 690 µg/mL | 1.24 mL/min/kg | 30000 nM |
| COC(=O)C1=C(CN2CCOC[C@H]2C(=O)O)NC(c2nccs2)=N[C@H]1c1ccc(Br)cc1F [Example 94, (S)-4-[(R)-6-(4-Bromo-2-fluoro-phenyl)-5-methoxycarbonyl-2-thiazol-2-yl-3,6-dihydro-pyrimidin-4-ylmethyl]-morpholine-3-carboxylic acid] | 4600 | 20 nM | > 677 µg/mL | 0.61 mL/min/kg | 92000 nM |
| [2H][C@@]1(c2ccc(F)cc2Cl)N=C(c2nccs2)NC(CN2CC(F)(F)C[C@H]2C(=O)O)=C1C(=O)OC [Example 3, (S)-6-((S)-2-Carboxy-4,4-difluoro-pyrrolidin-1-ylmethyl)-4-(2-chloro-4-fluoro-phenyl)-[4-^2H]-2-thiazol-2-yl-1,4-dihydro-pyrimidine-5-carboxylic acid methyl ester] | 88182 | 1.1 nM | > 644 µg/mL | 9.21 mL/min/kg | 97000 nM |
